For assay [1], the system named is HUVEC cells. As to conditions: cited from earlier work.
Assay [2] concerns DNA. As to conditions: cited from earlier work.
Assay [3] concerns hESCs. The assay is described as follows: Marker expression in hESCs maintained in mTeSR1 media with GANT-61. In kind it is cell-based, human. The settings on record: 5 μM and 20 μM GANT-61, 6 or 12 days. The method, then:
H1 (WA01), a well characterized human embryonic stem cell line,^33 was purchased from WiCell (Madison, WI, www.wicell.org/home/stem-cells/catalog-of-stem-cell-lines/wa01.cmsx). The cells were maintained on Matrigel-coated culture dishes in mTeSR1 medium (STEMCELL Technologies) or StemMACS iPS-Brew XF (Miltenyi Biotec).
(§1) High-Capacity RNA-to-cDNA kit (Applied Biosystems) was used to reverse transcribe the isolated RNA. Each reaction tube included up to 2 μg of RNA. The reverse transcription reaction was performed according to manufacturer instructions via the MBS Satellite (0.2 G) Thermal Cycler (ThermoFisher Scientific). The qPCR reaction mix was prepared by adding 12 ng of cDNA from each sample to the PowerUp SYBR Green Master Mix (2×) (Applied Biosystems). qPCR was performed (Standard Cycling Mode, primer Tm<60° C.) via the 7500 Fast Real-Time PCR system [Applied Biosystems]. The 7500 v2.3 software was used for data collection and gene expression comparisons (2^−ΔΔCT method).
Next, the effect of GANT-61 on GLI1 and SHH pathway members PTCH1 and SMO expression and on pluripotency marker expression in hESCs was evaluated.

Assay [4] deals with Rh41 cells. The assay is described as follows: rt-PCR of GLI1 target gene Bcl-2 in GANT-61 treated Rh41 cells. In kind it is cell-based. As for the experimental part:
as §1
(§2) First, to validate the effect of GANT-61 inhibition on GLI1 target genes, rt-PCR on GANT-61 treated Rh18 and Rh41 cells was performed. These cell lines express GLI1.

Assay [5] has as its system H1 hESCs. The assay is described as follows: Spontaneous differentiation of WT H1 hESC in embryoid bodies in the presence of GANT-61, real time PCR. The format is cell-based, human. The method, then: WT H1 hESC single cells were plated onto non-attachment plates and maintained in ESC media without FGF-β in the presence of FBS. Experimental group was cultured in the presence of GANT-61 (Tocris Biosciences, Cat. No. 3191) at concentration of 5 μM, while the control group was cultured in the presence of 5 μM DMSO. Media containing GANT-61 was replaced every other day. Embryoid bodies were collected at days 10 and 20. Markers for the three embryologic lineages were analyzed by real time PCR.
as §1

The test system of assay [6] is human colon carcinoma cell lines. The settings on record: panel of 7 human colon carcinoma cell lines; cited from earlier work.
Assay [7] deals with cancer cells. The settings on record: cited from earlier work.
Assay [8] relates to lung adenocarcinoma cell lines. The settings on record: cited from earlier work.
Assay [9] addresses T1, GLI1 (Homo sapiens, UniProt P08151).
T1 sequence (P08151 1-1106): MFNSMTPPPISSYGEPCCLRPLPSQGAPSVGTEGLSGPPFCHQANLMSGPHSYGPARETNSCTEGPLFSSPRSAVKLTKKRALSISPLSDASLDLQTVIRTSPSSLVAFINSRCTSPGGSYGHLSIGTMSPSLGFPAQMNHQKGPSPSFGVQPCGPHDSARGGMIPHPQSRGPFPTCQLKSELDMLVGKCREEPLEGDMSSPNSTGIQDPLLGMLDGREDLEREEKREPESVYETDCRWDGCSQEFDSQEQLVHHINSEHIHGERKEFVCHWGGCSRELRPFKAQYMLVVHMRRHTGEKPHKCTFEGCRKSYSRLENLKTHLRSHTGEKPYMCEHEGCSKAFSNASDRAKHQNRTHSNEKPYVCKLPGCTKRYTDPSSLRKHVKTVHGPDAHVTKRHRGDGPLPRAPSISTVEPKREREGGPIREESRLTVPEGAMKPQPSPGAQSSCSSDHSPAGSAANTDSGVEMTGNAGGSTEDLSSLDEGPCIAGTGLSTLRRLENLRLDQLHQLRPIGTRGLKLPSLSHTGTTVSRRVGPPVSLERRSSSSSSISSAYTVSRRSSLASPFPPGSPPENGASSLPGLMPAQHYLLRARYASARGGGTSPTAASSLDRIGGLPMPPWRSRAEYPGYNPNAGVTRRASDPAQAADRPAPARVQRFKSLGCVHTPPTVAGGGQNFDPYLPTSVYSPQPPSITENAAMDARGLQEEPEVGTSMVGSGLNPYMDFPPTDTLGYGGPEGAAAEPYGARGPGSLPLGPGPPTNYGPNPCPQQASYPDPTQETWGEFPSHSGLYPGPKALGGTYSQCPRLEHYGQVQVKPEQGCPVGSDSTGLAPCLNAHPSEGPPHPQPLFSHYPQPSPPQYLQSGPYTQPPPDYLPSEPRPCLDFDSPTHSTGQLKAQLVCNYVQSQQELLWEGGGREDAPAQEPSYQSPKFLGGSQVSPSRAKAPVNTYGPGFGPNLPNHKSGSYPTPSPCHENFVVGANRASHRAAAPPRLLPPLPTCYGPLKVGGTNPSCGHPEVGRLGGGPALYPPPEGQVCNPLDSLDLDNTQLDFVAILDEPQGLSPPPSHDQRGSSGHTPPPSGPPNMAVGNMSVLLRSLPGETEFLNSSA
The settings on record: between zinc fingers 2 and 3 at sites E119 and E167; cited from earlier work.

Assay [10] concerns GLI1 and GLI2 transcription factors. As to conditions: cited from earlier work.
Assay [11] relates to Rh18 cells. The experiment in a line: rt-PCR of GLI1 target gene Bcl-2 in GANT-61 treated Rh18 cells. The format is cell-based. The method, then: as §1, §2
Where [12] appears, read: 5 μM GANT-61, day 10 embryoid bodies.
[13] abbreviates: 5 μM GANT-61, during the differentiation process.

“Also recorded” adds a separate entry of the source.

`c1cc(-c2sc(-c3ccncc3)c(-c3ccncc3)c2-c2ccncc2)ccn1` [GANT-58]: the “oxytocin induced HIF-1alpha expression” value in [1] (HUVEC cells) is “abrogate”. For the same molecule, the “angiogenic capacity of HUVEC cells” value in assay [1] is recorded as “reduction”.

Turning to `CN(C)c1ccccc1CN1CCCN(Cc2ccccc2N(C)C)C1c1ccncc1` [GANT-61], in assay [2], the “binding to DNA” value was “does not bind”. Further, in [3], the GLI1 expression result is “no significant differences”, the PTCH1 expression entry is reported as “no significant differences”, the SMO expression entry is listed as “no significant differences” and the pluripotency marker expression result is “no significant differences”. In [4], the Bcl-2 expression result is on record as “significant down-regulation”. The “mesodermal commitment of H1 hESCs in embryoid bodies” value in assay [5] is “inhibited”. For the same molecule, in [5] (5 μM GANT-61, day 10), the GLI1 expression entry is recorded as “down-regulated”, the GLI2 expression result was “down-regulated”, the PTCH1 expression result was “down-regulated” and the Plakoglobin expression entry is on record as “down-regulated”. Moreover, the “expression of pluripotency genes” value in assay [5] (5 μM GANT-61, day 10) is given as “down-regulated”. In [5] (setting [12]), the “ectodermal gene expression / differentiation” value is “decreased; also recorded: inhibited”, the “endodermal gene expression / differentiation” value is reported as “significantly increased; also recorded: promoted” and the “mesodermal gene expression / differentiation” value is on record as “significantly increased; also recorded: promoted”. Also, in assay [5] (5 μM GANT-61, day 20), the GLI1 expression entry was “continued to down-regulate”, the GLI2 expression entry was “continued to down-regulate”, the PTCH1 expression entry is recorded as “continued to down-regulate” and the endodermal marker expression result is reported as “significantly decreased; also recorded: significantly reduced”. In addition, in assay [5] (5 μM GANT-61, day 20), the “expression of pluripotency genes” value is listed as “continued to down-regulate” and the mesodermal marker expression result is listed as “significantly decreased; also recorded: significantly reduced”. In addition, in [5] (setting [13]), the GLI1 expression result was “significantly down-regulated” and the PTCH1 expression entry is recorded as “significantly down-regulated”. Also, in assay [6], the cell death result is “extensive cell death”. In [7], the apoptosis entry is recorded as “increases”, the proliferation result was “reduces” and the stem cell markers result was “reduces”. Also, the cancer initiating phenotype entry in [8] was “effective inhibiting”. Besides, the “binding to GLI1” value in assay [9] was “binds”. Also, the “binding of GLI1 and GLI2 transcription factors to DNA” value in assay [10] is on record as “inhibiting the binding”. In addition, the Bcl-2 expression result in assay [11] is reported as “significant down-regulation”.

The record behind these values is patent US20250101430A1, “METHODS OF CANCER TREATMENT BY INHIBITION OF VASCULOGENESIS AND GLI1” (priority 2021, published 2025).
